Publication PMC4760439, “Glicentin‐related pancreatic polypeptide inhibits glucose‐stimulated insulin secretion from the isolated pancreas of adult male rats” (Physiological Reports, 2015)
“Also recorded” adds a separate entry of the source. Positions of bridges follow the written chain, without caps; N, C: chain ends. No end group written: not given here.

Experiments:
pancreatic β‐cell = settings: ref Metz et al. 1983; Zielmann et al. 1985; Holst et al. 1987; Shima et al. 1988; Goke et al. 1989; Ishizuka et al. 1991; Jia et al. 1995; Vahl et al. 2003; cited from earlier work
[1] = system: isolated‐perfused rat pancreas, perifused rat islets, and cultured islets; settings: ref Norfleet et al. 1975, Fujimoto 1981, Bolaffi et al. 1990; cited from earlier work
Text: (§1) GRPP and GRPP‐LP may inhibit insulin secretion indirectly, perhaps by influencing other islet‐derived hormones known to modulate hormone secretion from the β‐cell.

[2] = system: plasma insulin and glucagon; settings: infusion in humans; ref Skamene and Patel 1984; cited from earlier work
Text: as §1

isolated rat islets = experiment: Insulin secretion from isolated rat islets (static incubation); format: cell-based; settings: hGRPP 1, 10, and 100 nmol L^−1, 1 h, 8 to 9 incubations of 10 islets/well, three experiments, ELISA
Text: (§2) Maximum pancreatic first‐phase insulin secretion in the presence of hormone infusion was contrasted with corresponding control values by unpaired Welch's t‐tests for preplanned comparisons, to allow for unequal variance between groups. Linear mixed‐effects models were fitted by restricted maximum likelihood (LME‐REML) to data obtained from each indicated phase of isolated perfused–organs studies, using S‐PLUS version 8.2 (TIBCO, Spotfire). Calculated P‐values <0.05 are presented in the article and reflect the likelihood ratio between two models, the effect in question (treatment, time, or treatment:time) against the model without the effect in question. Insulin secreted from isolated islets was expressed as a percentage of insulin content and compared using one‐way ANOVA (GraphPad Prism version 6.0: GraphPad Software Inc., San Diego, CA). Cyclic AMP data have been normalized to the response obtained to forskolin and fitted to obtain concentration–response curves using a three‐parameter logistic equation (GraphPad Prism version 6.0: GraphPad Software Inc., San Diego, CA): pEC50 values were obtained from the concentration–response curves and compared using one‐way ANOVA. All data are presented as mean ± SEM of three to four independent experiments.

[3] = molecular target: T1, human glucagon receptor (hGL‐R) (Homo sapiens, UniProt P47871); experiment: cAMP stimulation in transfected Cos 7 cells, hGL‐R; format: cell-based; settings: preliminary experiment, hGL‐R with vector; data not shown
T1 construct: expressed in transfected cells; host or cells: Cos 7 cells
T1 sequence (P47871 26-477): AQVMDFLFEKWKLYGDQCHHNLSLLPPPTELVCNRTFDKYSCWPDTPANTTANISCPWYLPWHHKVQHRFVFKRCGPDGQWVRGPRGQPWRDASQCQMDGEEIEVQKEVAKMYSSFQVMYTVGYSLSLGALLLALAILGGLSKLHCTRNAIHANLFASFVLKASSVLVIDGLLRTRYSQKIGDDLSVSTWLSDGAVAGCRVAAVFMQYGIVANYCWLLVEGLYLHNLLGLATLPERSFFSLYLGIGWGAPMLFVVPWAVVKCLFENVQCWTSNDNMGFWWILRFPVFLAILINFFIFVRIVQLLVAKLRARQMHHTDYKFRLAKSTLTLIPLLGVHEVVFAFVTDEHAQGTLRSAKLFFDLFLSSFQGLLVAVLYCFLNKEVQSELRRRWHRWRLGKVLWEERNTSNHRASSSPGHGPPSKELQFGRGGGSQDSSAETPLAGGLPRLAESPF
Protocol: Transfection of Cos 7 cells
Cos 7 cells were maintained and subcultured as previously described (Bailey and Hay 2006) and plated at a density of 15,000 cells per well into 96‐well plates 1 day prior to transfection. […] Cyclic AMP assays were performed 48 h after transfection (Bailey and Hay 2006). The human GRPP was obtained from Bachem (Bubendorf, Switzerland).
(§3) Cyclic AMP stimulation of transfected Cos 7 cells
(§4) Transfected cells were serum‐deprived in DMEM containing 1 mmol L^−1 IBMX and 0.1% (w/v) bovine serum albumin (BSA) for 30 min. […] Plates were incubated at 37°C for 10 min. […] Media were then aspirated from the wells and reactions terminated by addition of ice‐cold absolute ethanol. Ethanol was then evaporated to dryness and cell extracts re‐suspended in 45 μL cAMP assay buffer: cAMP concentrations were determined using ALPHA‐screen assay kits (Perkin Elmer, Massachusetts) as previously described (Gingell et al. 2010).
as §2, with “Cyclic AMP data have been normalized to the response obtained to forskolin and fitted to obtain concentration–response curves using a three‐parameter logistic equation (GraphPad Prism version 6.0: GraphPad Software Inc., San Diego, CA): pEC50 values were obtained from the concentration–response curves and compared using one‐way ANOVA. All data are presented as mean ± SEM of three to four independent experiments.” left out

hGL‐R with RAMP2 = experiment: cAMP stimulation in Cos 7 cells transfected with hGL‐R and RAMP2; format: cell-based, human; settings: preliminary experiment; data not shown
Protocol: as §3, §4

canine pancreas = settings: local circulation preparation of the canine pancreas; ref Ohneda and Ohneda 1988; cited from earlier work
Text: However, we know of only one study reporting the effects of GRPP on GSIS. […] The precise experimental conditions such as amount of glucose and experimental model used may have influences on the different outcomes; however, the reason for the opposing actions of GRPP between these ...

For “glucagon‐like peptide 1 (HAEGTFTSDVSSYLEGQAAKEFIAWLVKGR; ends and bridges not checked; UniProt P01275 98-127, looked up) [GLP‐1, incretin; literature statement, form not specified]”, the “GSIS (action on pancreatic β‐cell)” value (pancreatic β‐cell) is given as “enhance glucose‐stimulated insulin secretion”.
In the case of “somatostatin (AGCKNFFWKTFTSC; disulfide 3-14; ends not checked; UniProt P61278 103-116, looked up) [SST]”, the “GSIS and arginine‐stimulated glucagon secretion” value [1] is listed as “inhibits GSIS as well as arginine‐stimulated glucagon secretion” and the “Arginine‐stimulated plasma insulin and glucagon levels” value [2] is listed as “decreased arginine‐stimulated plasma insulin and glucagon levels in a dose‐dependent manner”.
With “RSLQDTEEKSRSFSASQADPLSDPDQMNED [hGRPP, human glicentin‐related pancreatic polypeptide, The human GRPP was obtained from Bachem]” the “Basal insulin secretion from islets (vs control)” value (isolated rat islets; 2.8 mmol L^−1 glucose) was “did not affect insulin secretion; also recorded: did not affect basal or stimulated insulin compared with untreated islets”, the “Glucose‐stimulated insulin secretion from islets (vs control)” value (isolated rat islets; 16.7 mmol L^−1 glucose) was “did not affect insulin secretion; also recorded: did not affect basal or stimulated insulin compared with untreated islets” and the “Stimulation of cAMP production at hGL‐R alone” value [3] was “did not stimulate cAMP production at hGL‐R alone”. The “Stimulation of cAMP production at hGL‐R in the presence of RAMP2” value (hGL‐R with RAMP2) was “did not stimulate cAMP production at hGL‐R alone or in the presence of RAMP2” and the “Plasma insulin and glucagon, canine pancreas” value (canine pancreas) was “slight increases in plasma insulin and decreases in plasma glucagon”.
